pKd: −log10 of the molar value. Where “and” joins values, the source holds several entries; their conditions need not be identical. Equal values may be shown once.
Legend:
[1] = test system: AeSCP-2 gene expression; test: In vitro tissue culture of 4th instar gut and carcass with 20E; dot blotting and western blotting; assay type: cell-based, Aedes aegypti
Description: To investigate whether ecdysteroids affect AeSCP-2 expression, 12 hour-old 4th instars were dissected to separate the head, gut, and carcass. Gut and carcass were cultured in the same dish with and without 20E (60 ng/ml) for 6 hours. […] As expected, at the protein level AeSCP-2 increased in 20E-treated gut tissue cultures (FIG. 7A, inset, lane 5).
Northern and dot blotting analysis—Fifteen to twenty microgram of total RNA from indicated stages was used in Northern blotting analysis as described (Ausubel et al., 1993). After electrophoresis, RNAs in the formaldehyde-agarose gel was blotted onto positively charged Nylon membrane (Millipore, Bedford, Mass.). For dot blotting analysis, 5 ug of total RNA from three parallel samples (10 larvae per sample) of each developmental time point were blotted on to positively charged Nylon membrane as described (Millipore). The membranes were baked at 80° C. under vacuum for 1 hour and UV cross-linked (Stratagene Cloning system, La Jolla, Calif.).
Western blotting analysis—Intact animals, dissected tissues and cultured tissues were homogenized in lysis buffer (0.25M TRIS®HCl (hydroxymethyl aminomethane hydrochloride), pH 8.0/0.2% TRITON®X-100 (octyl phenol ethoxylate) 1 mM dithioerythritol/5 mM EDTA/10 mM β-mercaptoethanol/1 mM phenylmethylsulfonyl fluoride/protease inhibitor cocktail (Sigma)), and centrifuged at 12000×g at 4° C. for 15 minutes. Supernatants containing solvable proteins were stored at −80° C. Protein concentrations were determined using a BCA kit (Pierce, Rockford, Ill.). […]
In vitro tissue culture—Staged 4th instars were dissected in insect saline (Riddiford et al., 1979) to obtain gut and carcass for in vitro tissue culture study. […] Pure 20-hydroxyecdysone (Sigma) was dissolved in 95% ethanol, and the concentration was determined by UV spectrum absorption analysis at 243 nm wavelength (20E mg/ml=(OD 243×480)/ε and the ε=12,670). […] Total RNA was extracted from cultured tissues and analyzed by Dot blotting. […] Soluble proteins were extracted from cultured tissues and analyzed by western blotting.

[2] = target: SCP-2; settings: vertebrate SCP-2, Gallegos et al., 2001; read-out: Kd values of SCP-2 cholesterol-binding; cited from earlier work
[3] = target: recombinant AeSCP-2 (Aedes aegypti, UniProt Q86PR3); test: Radiolabeled cholesterol binding assay (Lipidex-1000), Scatchard plot; settings: [3H]cholesterol, rAeSCP-2 8 pM per assay, 4° C. overnight, N=6
Excerpt: Whether AeSCP-2 binds cholesterol with high affinity was examined using radiolabeled cholesterol and recombinant AeSCP-2 (rAeSCP-2). Lipidex-1000 has been used for studying lipid/sterol binding proteins over decades and is proven to be a reliable assay (Glatz and Veerkamp, 1983; Colles et al., 1995). The recombinant protein was purified as GST-tagged fusion protein (FIG. 5, lanes 2 and 5) on the GST affinity column and the GST-tag was removed using Thrombin (FIG. 5, lane 4). After 16-hour Thrombin digest, there was still considerable amount of uncut fusion proteins (FIG. 5, lane 5) that may be resulted from insufficient concentration of Thrombin in the column (400 units/10 ml column). Further digest with increased level of Thrombin did completely remove the GST tag (data not shown). To optimize the condition for binding assay, varied concentrations of rAeSCP-2 was tested with 0.07 to 0.1 pM of radiolabeled cholesterol per assay. […]
Radiolabeled cholesterol binding assay—The binding of radiolabeled cholesterol to AeSCP-2 was measured based on the Lipidex-1000 assay (Glatz and Veerkamp, 1983) optimized for AeSCP-2. […]
Standard cholesterol solution was made from pure cholesterol (Sigma) in 95% ethanol at concentrations 0.04 nM to 20 uM. […] The slope=−Ka and Kd was calculated as […].

Row | SMILES | increase of AeSCP-2 mRNA level in cultured carcass ([1]; 20E 60 ng/ml, 6 hours, carcass of 12 hour-old 4th instars) | increase of AeSCP-2 mRNA level in cultured gut ([1]; 20E 60 ng/ml, 6 hours, gut of 12 hour-old 4th instars) | AeSCP-2 protein level in gut tissue cultures ([1]; 20E-treated gut, western blot, FIG. 7 inset lane 5) | pKd [2] | pKd [3]
1 | CC(C)(O)CC[C@@H](O)[C@](C)(O)[C@H]1CC[C@@]2(O)C3=CC(=O)[C@@H]4C[C@@H](O)[C@@H](O)C[C@]4(C)[C@H]3CC[C@]12C [20E, 20-hydroxyecdysone] | not in the carcass | 2 fold | increased |  | 
2 | CC(C)CCC[C@@H](C)[C@H]1CC[C@H]2[C@@H]3CC=C4C[C@@H](O)CC[C@]4(C)[C@H]3CC[C@]12C [cholesterol] |  |  |  | 5.59 to 8.40 | 8.26 and 8.25

From patent US7150972B2, “Sterol carrier protein-2 from the mosquito, Aedes aegypti” (Wisconsin Alumni Research Foundation, priority 2003, dated 2006)
